Results reported in ChEMBL document CHEMBL1201862, “PubChem BioAssay data set” (2004).
The source made the active and inactive calls.

Tests used:
[1] = target: T1, Carboxy-terminal domain RNA polymerase II polypeptide A small phosphatase 1 (Homo sapiens, UniProt Q9GZU7); experiment: inhibitors of CTDSP1, concentration-response testing, biochemical assay, absorbance-based, actives from ultra-high-throughput screening (AID 540297); assay type: functional
T1 sequence (Q9GZU7 whole entry): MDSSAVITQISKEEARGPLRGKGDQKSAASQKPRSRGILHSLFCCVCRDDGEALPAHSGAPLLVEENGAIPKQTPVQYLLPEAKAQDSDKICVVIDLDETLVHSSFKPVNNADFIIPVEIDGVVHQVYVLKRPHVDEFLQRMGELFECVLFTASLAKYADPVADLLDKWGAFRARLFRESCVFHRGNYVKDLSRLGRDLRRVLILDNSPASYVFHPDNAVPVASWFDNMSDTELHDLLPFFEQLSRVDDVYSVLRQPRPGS

[2] = target: T2, Histone-lysine N-methyltransferase NSD2 (Homo sapiens, UniProt O96028); assay type: biochemical
T2 sequence (O96028 whole entry): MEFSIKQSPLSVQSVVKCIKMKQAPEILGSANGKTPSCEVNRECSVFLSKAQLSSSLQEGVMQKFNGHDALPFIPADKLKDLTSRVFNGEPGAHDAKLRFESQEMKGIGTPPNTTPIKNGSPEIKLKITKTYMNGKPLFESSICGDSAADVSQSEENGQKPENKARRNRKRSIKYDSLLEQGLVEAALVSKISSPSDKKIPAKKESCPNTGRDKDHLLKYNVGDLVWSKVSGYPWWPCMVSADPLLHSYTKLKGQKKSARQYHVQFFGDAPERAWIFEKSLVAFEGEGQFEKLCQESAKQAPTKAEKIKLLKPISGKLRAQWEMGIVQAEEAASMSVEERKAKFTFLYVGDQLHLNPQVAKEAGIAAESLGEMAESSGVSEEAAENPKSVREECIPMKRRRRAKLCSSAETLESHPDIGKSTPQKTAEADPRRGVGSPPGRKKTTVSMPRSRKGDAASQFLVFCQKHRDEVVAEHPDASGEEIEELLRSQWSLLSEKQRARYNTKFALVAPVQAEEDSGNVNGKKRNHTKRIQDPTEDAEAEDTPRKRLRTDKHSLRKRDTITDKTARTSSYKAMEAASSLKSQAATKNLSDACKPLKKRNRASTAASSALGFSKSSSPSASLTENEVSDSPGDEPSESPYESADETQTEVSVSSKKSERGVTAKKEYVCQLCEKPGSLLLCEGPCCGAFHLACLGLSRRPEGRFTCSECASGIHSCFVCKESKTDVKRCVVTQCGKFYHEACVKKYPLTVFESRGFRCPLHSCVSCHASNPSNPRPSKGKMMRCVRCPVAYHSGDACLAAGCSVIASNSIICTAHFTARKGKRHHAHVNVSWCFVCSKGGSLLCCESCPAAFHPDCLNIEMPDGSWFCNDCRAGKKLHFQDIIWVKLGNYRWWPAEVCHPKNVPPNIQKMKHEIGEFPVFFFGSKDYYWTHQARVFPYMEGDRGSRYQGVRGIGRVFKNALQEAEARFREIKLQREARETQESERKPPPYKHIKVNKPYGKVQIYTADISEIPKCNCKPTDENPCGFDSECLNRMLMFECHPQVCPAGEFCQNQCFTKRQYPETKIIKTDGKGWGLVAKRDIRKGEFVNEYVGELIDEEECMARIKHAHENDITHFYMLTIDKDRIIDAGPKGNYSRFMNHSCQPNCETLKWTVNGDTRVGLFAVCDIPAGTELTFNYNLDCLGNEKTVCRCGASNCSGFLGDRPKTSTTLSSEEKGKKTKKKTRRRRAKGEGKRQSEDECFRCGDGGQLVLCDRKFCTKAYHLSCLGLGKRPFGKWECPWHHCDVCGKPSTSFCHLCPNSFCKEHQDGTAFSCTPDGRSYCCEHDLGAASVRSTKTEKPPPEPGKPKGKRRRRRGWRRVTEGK

Streptococcus = experiment: Group A Streptococcus viability loss, dose response, counter-screen for streptokinase expression inhibitor project, luminescence, BacTiterGlo (AID 1915); assay type: functional, organism-based;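 note: potency for reduction of bacterial viability or growth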
[3] = target: T3, RNA-binding protein pos-1 (Caenorhabditis elegans, UniProt G5EF15); experiment: inhibitors of POS-1/mex-3 RNA binding, dose response, biochemical, fluorescence polarization (AID 1964);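 note: purified POS-1 fused to maltose binding protein made in E. coli; potency of compounds blocking POS-1 binding to fluorescent RNA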
T3 sequence (G5EF15 whole entry): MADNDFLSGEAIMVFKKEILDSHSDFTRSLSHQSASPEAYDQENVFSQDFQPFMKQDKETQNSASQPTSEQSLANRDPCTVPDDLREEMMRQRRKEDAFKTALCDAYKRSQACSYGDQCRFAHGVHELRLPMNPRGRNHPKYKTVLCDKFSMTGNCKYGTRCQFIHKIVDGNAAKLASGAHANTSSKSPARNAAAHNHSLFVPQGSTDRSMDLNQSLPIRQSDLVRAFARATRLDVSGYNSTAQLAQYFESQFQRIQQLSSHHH

[4] = target: T4, Zinc finger protein mex-5 (Caenorhabditis elegans, UniProt Q9XUB2); experiment: MEX-5/TCR-2 RNA interaction inhibitors, dose response, biochemical, C. elegans, fluorescence polarization (AID 1960)
T4 sequence (Q9XUB2 whole entry): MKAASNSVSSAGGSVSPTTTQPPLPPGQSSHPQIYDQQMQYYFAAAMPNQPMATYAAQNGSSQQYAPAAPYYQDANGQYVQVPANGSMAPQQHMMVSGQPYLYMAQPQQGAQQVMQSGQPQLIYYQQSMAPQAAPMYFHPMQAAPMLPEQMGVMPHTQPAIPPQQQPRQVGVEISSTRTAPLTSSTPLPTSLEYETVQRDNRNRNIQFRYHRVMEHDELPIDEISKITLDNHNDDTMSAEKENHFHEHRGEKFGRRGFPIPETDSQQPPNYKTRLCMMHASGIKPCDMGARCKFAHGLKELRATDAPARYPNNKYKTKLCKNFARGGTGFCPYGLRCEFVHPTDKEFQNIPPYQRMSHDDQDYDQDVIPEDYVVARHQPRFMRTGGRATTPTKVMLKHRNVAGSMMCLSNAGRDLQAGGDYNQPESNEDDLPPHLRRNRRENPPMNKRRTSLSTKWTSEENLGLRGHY

[5] = system: Streptococcus sp. 'group A'; experiment: growth inhibition of control SK(-) GAS strain, dose response, counter-screen for streptokinase expression inhibitor project, luminescence, kanamycin, BacTiterGlo, confirmation (AID 1900); assay type: functional, organism-based
Streptokinase A = target: T5, Streptokinase A (Streptococcus pyogenes serotype M1, UniProt P10520); experiment: S. pyogenes streptokinase expression inhibitors, potency, dose response, plasminogen activation absorbance, OD405 (AID 1914); assay type: functional, Streptococcus pyogenes M1 GAS;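 note: secreted streptokinase activity via plasminogen activation per viability signal from cell pellet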
T5 sequence (P10520 whole entry): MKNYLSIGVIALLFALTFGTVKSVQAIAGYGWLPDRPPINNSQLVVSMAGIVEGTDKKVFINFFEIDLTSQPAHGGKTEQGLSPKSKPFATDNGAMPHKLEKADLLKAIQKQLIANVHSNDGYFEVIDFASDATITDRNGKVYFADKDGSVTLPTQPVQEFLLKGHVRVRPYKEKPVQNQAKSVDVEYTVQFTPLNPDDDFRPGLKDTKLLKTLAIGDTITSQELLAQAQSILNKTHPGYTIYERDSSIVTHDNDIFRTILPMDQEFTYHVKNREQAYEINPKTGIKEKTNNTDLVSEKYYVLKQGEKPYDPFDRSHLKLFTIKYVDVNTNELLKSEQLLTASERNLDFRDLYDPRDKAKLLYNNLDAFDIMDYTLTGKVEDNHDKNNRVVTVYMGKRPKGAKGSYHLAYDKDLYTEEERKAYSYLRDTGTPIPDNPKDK

[6] = target: FAD-linked sulfhydryl oxidase ALR (Homo sapiens, UniProt P55789); experiment: inhibitors of human ALR sulfhydryl oxidase, dose response, biochemical, H2O2 detection, luminescence, cherry-pick (AID 493248)
Sequence of FAD-linked sulfhydryl oxidase ALR (P55789 whole entry): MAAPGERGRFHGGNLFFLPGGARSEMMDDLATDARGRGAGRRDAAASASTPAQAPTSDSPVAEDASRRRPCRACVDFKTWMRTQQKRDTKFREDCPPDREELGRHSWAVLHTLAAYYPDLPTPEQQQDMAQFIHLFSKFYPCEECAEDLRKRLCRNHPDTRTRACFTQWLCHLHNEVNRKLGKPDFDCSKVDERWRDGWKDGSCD

[7] = microbe, parasite or virus in culture; assay type: functional; conditions: Mycobacterium tuberculosis
[8] = HEp-2 cell cytotoxicity, dose response, cytotoxicity control for RSV inhibitor project, HTS (AID 2410); assay type: functional; conditions: human respiratory syncytial virus
Large T antigen = Large T antigen (Simian virus 40, UniProt P03070); assay type: functional, Betapolyomavirus macacae;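 note: Confirmatory-stage PubChem screen for compounds that inhibit SV40 T antigen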
Sequence of Large T antigen (P03070 whole entry): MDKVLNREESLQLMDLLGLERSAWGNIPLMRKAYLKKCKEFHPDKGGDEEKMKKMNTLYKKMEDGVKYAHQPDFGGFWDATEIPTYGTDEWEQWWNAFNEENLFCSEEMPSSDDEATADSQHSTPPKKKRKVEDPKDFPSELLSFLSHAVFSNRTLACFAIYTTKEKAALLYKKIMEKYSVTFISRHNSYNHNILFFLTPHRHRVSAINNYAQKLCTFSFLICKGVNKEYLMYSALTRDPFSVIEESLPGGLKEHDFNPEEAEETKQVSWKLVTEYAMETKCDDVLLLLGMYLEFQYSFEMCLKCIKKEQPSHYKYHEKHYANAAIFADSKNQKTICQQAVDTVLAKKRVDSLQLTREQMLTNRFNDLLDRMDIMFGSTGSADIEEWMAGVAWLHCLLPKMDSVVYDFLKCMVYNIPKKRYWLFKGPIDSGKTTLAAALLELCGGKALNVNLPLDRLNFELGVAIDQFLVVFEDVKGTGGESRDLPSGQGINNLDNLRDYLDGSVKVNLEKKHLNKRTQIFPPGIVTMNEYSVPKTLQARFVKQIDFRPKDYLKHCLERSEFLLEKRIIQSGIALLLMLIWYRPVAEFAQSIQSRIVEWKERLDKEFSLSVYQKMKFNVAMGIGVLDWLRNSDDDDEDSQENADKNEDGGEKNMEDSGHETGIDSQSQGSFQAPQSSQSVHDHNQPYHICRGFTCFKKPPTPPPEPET

[9] = target: T6, Heat shock factor protein 1 (Mus musculus, UniProt P38532); experiment: inhibition of MG132-induced HSE-luciferase signal, confirmation, cell-based, NIH3T3, luminescence, dose retest (AID 2382); assay type: functional;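 note: NIH3T3 fibroblasts with HSF1-driven luciferase reporter stressed by proteasome inhibitor MG132; luminescence from HSF1-driven luciferase expression after 8 hours of MG132 stress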
T6 sequence (P38532 whole entry): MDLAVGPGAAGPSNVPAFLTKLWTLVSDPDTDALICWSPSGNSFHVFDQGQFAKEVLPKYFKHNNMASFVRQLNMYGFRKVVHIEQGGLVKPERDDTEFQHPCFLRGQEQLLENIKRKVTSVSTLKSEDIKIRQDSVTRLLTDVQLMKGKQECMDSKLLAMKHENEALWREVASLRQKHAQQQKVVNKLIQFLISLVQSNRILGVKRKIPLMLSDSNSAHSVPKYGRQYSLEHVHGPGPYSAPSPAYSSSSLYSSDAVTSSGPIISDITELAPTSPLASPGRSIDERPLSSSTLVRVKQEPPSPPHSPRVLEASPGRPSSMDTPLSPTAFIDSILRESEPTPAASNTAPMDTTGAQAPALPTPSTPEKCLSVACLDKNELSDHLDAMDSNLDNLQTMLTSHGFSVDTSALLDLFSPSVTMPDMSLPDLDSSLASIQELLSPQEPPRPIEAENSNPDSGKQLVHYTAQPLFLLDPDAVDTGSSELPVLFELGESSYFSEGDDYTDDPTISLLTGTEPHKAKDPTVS

[10] = cytotoxicity toward NIH3T3 fibroblasts, dose response, counter-screen, cell-based, ATP luminescence, mouse fibroblasts (AID 2010); assay type: functional;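 note: cells exposed to compound for about 90 hours before reading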
[11] = inhibitors of intracellular T. cruzi replication, confirmation, NIH3T3 host cells, beta-gal luminescence (AID 2044); assay type: functional, cell-based;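 note: intracellular parasites grown in NIH/3T3 mouse fibroblasts as host cells; luminescent beta-galactosidase reporter signal from transgenic T. cruzi replicating inside host cells; inhibitors lower the luminescence signal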
[12] = C. albicans growth with fluconazole, confirmation, fluorescence, retest (AID 2467); assay type: functional, cell-based
[13] = NIH-3T3 fibroblast cytotoxicity, dose response, cytotoxicity control, cell-based, fluorescence, Alamar Blue, secondary assay (AID 2327); assay type: functional;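 note: NIH-3T3 mouse fibroblasts cultured with fluconazole at 8 µg/mL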

Question: Which results are given for `N=C1/C(=C\c2ccc(Br)o2)C(=O)N=C2SC(CC(=O)N3CCOCC3)=NN12`?
Answer: IC50 [1]: 18.3 µM (active); AC50 [2]: > 20 µM (inactive)

Question: Which results are given for `N#Cc1ccccc1CN1C(=O)S/C(=C/c2cccn2-c2ccc(C(=O)O)cc2)C1=O`?
Answer: IC50 [1]: 5.85 µM (active); EC50 (Streptococcus): 61.7 µM (active); EC50 [3]: > 300 µM (not active); EC50 [4]: 44 µM (active); EC50 [5]: 15.8 µM (active); EC50 (Streptokinase A): > 150 µM (not active); AC50 [6]: 86.3 µM (active)

Question: Which AC50 [2] does the source give for `CCN1CCCCC(=N/O)/C(=N/O)CCCC1` here?
Answer: The AC50 was > 20 µM (inactive).

Question: Which CC50 [7] does the source give for `C=CCn1c(=O)/c(=C/c2ccc(Cl)cc2)s/c1=C(/C#N)c1nnc2n1CCCCC2` here?
Answer: Its CC50 is 40 µM (active).

Question: Which results are given for `CCOC(=O)c1[nH]nc(-c2cc(CC)c(O)cc2O)c1-c1cscn1`?
Answer: CC50 [8]: 22.6 µM (active); IC50 (Large T antigen): 20.6 µM (active)

Question: With `Cc1nn(-c2ccccc2)c2nc(O)c(CNc3ccc(N4CCOCC4)cc3)cc12` as the compound, how does the IC50 (Large T antigen) read?
Answer: The IC50 was 5.01 µM (active).

Question: With `NC(=O)C1CCN(C2=C(NS(=O)(=O)c3ccc(Cl)cc3)C(=O)c3ccccc3C2=O)CC1` as the compound, how does the AC50 [2] read?
Answer: Its AC50 is 14.1 µM (active).

Question: For `COc1ccc(C(=O)Oc2ccc(/C=N/O)cc2)cc1`, which EC50 [9] is on record?
Answer: Its EC50 is > 195 µM (not active).

Question: What about the AC50 [6] of the same compound?
Answer: The AC50 was 0.247 µM (active).

Question: Which CC50 [7] does the source give for `Cc1ccc(NC(=O)C2CCN(S(=O)(=O)c3ccc4c(c3)NC(=O)C(C)S4)CC2)c(Cl)c1` (stereo not drawn) here?
Answer: Its CC50 is > 40 µM (active).

Question: For `CCC[n+]1c2ccccc2cc2ccccc21`, which EC50 [10] is on record?
Answer: Its EC50 is > 60 µM (not active).

Question: And the IC50 (Large T antigen)?
Answer: Its IC50 is 46.2 µM (active).

Question: And the EC50 [11]?
Answer: The EC50 was 0.157 µM (active).

Question: And the EC50 [12]?
Answer: Its EC50 is 0.672 µM (active).

Question: What about the EC50 [13] of the same compound?
Answer: Its EC50 is > 160 µM (inactive).
